Test results: US20240108745A1, “BIOACTIVE SUBSTANCE CONJUGATE, PREPARATION METHOD THEREFOR AND USE THEREOF” (MEDILINK THERAPEUTICS (SUZHOU) CO., LTD., priority 2021, published 2024)

How the values were obtained:
Type in all cases: cell-based
HT29 cells [1] = assay: Assay I of bioactive molecules on cell viability in vitro (CCK8); settings: Homo sapiens, HT-29, CCK8; read-out: EC50(nM), killing of HT29 cells
Method: (§1) Tumor cells were first cultured; the bioactive molecules of the present disclosure were co-cultured with tumor cells, and then CCK8 reagent (Dojindo Laboratories (Shanghai), Cat: CK04, Lot: JJ744) was added, and the activity of dehydrogenase in mitochondria was detected by reading (detection wavelength 450 nm) on a microplate reader (manufacturer: Molecular Devices, model: SpectraMax M2), to evaluate the inhibitory effect of bioactive molecules on cell proliferation.
(§2) In vitro cell viability assay method: bioactive molecules (12 concentration gradients) were diluted with corresponding assay medium (containing 2% FBS). The tumor cells were digested by conventional methods using trypsin, and cells in tube were collected and counted, then resuspended in the corresponding assay media (containing 2% FBS). The diluted bioactive molecules were added to a 96-well plate, followed by the cells. Then, 20 μL of CCK8 reagent was added to each well, and the reaction was carried out for 4 h, then the plate was read on a microplate reader (detection wavelength was 450 nm). The experimental results are shown in Tables 6.1, 6.2, 6.3, 6.4, and 6.5.

NCl-H358 cells = assay: as above; settings: Homo sapiens, read-out: EC50(nM), killing of NCl-H358 cells
Method: as §1, §2

HT29 cells [2] = assay: Assay III of bioactive molecules on cell viability in vitro (CCK8); settings: Homo sapiens, HT-29; CCK8, 3-4 days (Assay III); read-out: EC50(nM), killing of HT29 cells
Method: Tumor cells HT29 (having a same source as the above) were first cultured. The bioactive molecules or fragments of the present disclosure were co-cultured with tumor cells, and then CCK8 reagent (Dojindo Laboratories (Shanghai), Cat: CK04, Lot: JJ744) was added, and the activity of dehydrogenase in mitochondria was detected by reading (detection wavelength 450 nm) on a microplate reader (manufacturer: Molecular Devices, model: SpectraMax M2), to evaluate the inhibitory effect of bioactive molecules on cell proliferation.
(§3) In vitro cell viability assay method: the tumor cells were digested by conventional methods using trypsin, and cells in tube were collected and counted, and then resuspended in the corresponding assay media (containing 2% FBS), which was added to a 96-well plate at 5000-10000 cells/well. Bioactive molecules were diluted with DMSO, and then added to a 96-well plate at 100 μL, the initial concentration was 10M, followed by 3-fold serial dilution (12 concentration gradients). The plate was incubated for 3-4 days at 37° C. under 5% CO2. Then, 20 μL of CCK8 reagent was added to each well, and the reaction was carried out for 2-6 h. The plate was read on a microplate reader (detection wavelength was 450 nm).

A431 = assay: Assay II of bioactive molecules on cell viability in vitro (CCK8); settings: Homo sapiens, A-431; CCK8, 3-4 days
Method: as §1, with “Tumor cells NUCG-4, PC-9, HT29, NCI-H358, KYSE520, A431 and A549 were first” for “Tumor cells were first”, “bioactive molecules or fragments of the” for “bioactive molecules of the”
as §3, with “and then 100 μL was added to” for “and then added to”, “a 96-well plate, the initial” for “a 96-well plate at 100 μL, the initial”, “concentration was 10 μM, followed by” for “concentration was 10M, followed by”

A549 = assay: as above; settings: Homo sapiens, CCK8, 3-4 days
Method: as §1, with “Tumor cells NUCG-4, PC-9, HT29, NCI-H358, KYSE520, A431 and A549 were first” for “Tumor cells were first”, “bioactive molecules or fragments of the” for “bioactive molecules of the”
as §3, with “and then 100 μL was added to” for “and then added to”, “a 96-well plate, the initial” for “a 96-well plate at 100 μL, the initial”, “concentration was 10 μM, followed by” for “concentration was 10M, followed by”

HT29 = assay: as above; settings: Homo sapiens, HT-29; CCK8, 3-4 days
Method: as §1, with “Tumor cells NUCG-4, PC-9, HT29, NCI-H358, KYSE520, A431 and A549 were first” for “Tumor cells were first”, “bioactive molecules or fragments of the” for “bioactive molecules of the”
as §3, with “and then 100 μL was added to” for “and then added to”, “a 96-well plate, the initial” for “a 96-well plate at 100 μL, the initial”, “concentration was 10 μM, followed by” for “concentration was 10M, followed by”

NCI-H358 = assay: as above; settings: Homo sapiens, CCK8, 3-4 days
Method: as §1, with “Tumor cells NUCG-4, PC-9, HT29, NCI-H358, KYSE520, A431 and A549 were first” for “Tumor cells were first”, “bioactive molecules or fragments of the” for “bioactive molecules of the”
as §3, with “and then 100 μL was added to” for “and then added to”, “a 96-well plate, the initial” for “a 96-well plate at 100 μL, the initial”, “concentration was 10 μM, followed by” for “concentration was 10M, followed by”

NUCG-4 = assay: as above; settings: CCK8, 3-4 days
Method: as §1, with “Tumor cells NUCG-4, PC-9, HT29, NCI-H358, KYSE520, A431 and A549 were first” for “Tumor cells were first”, “bioactive molecules or fragments of the” for “bioactive molecules of the”
as §3, with “and then 100 μL was added to” for “and then added to”, “a 96-well plate, the initial” for “a 96-well plate at 100 μL, the initial”, “concentration was 10 μM, followed by” for “concentration was 10M, followed by”

PC-9 = assay: as above; settings: Homo sapiens, CCK8, 3-4 days
Method: as §1, with “Tumor cells NUCG-4, PC-9, HT29, NCI-H358, KYSE520, A431 and A549 were first” for “Tumor cells were first”, “bioactive molecules or fragments of the” for “bioactive molecules of the”
as §3, with “and then 100 μL was added to” for “and then added to”, “a 96-well plate, the initial” for “a 96-well plate at 100 μL, the initial”, “concentration was 10 μM, followed by” for “concentration was 10M, followed by”

LS174T cells = assay: Assay I of bioactive molecules on cell viability in vitro (CCK8); settings: Homo sapiens, read-out: EC50(nM), killing of LS174T cells
Method: as §1, §2

| Structure (SMILES) | EC50 (HT29 cells [1]) [nM] | EC50 (NCl-H358 cells) [nM] | further results |
| --- | --- | --- | --- |
| CC[C@@]1(O)C(=O)OCc2c1cc1n(c2=O)Cc2c-1nc1cc(F)c(C)cc1c2CCCO [Example A1.10, (S)-4-ethyl-8-fluoro-4-hydroxy-11-(3-hydroxypropyl)-9-methyl-1,12-dihydro-14H-pyrano[3′,4′:6,7]indolizino[1,2-b]quinolin-3,14(4H)-dione] | 5.96 | 8.11 |  |
| CC[C@@]1(O)C(=O)OCc2c1cc1n(c2=O)Cc2c-1nc1cc3c(cc1c2-c1ccc(N)cc1)OCO3 [Example A1.4, (S)-14-(4-aminophenyl)-7-ethyl-7-hydroxy-10,13-dihydro-11H-[1,3]dioxolo[4,5-g]pyrano[3′,4′:6,7]indolizino[1,2-b]quinolin-8,11(7H)-dione] | 29.4 | 29.9 |  |
| CC[C@@]1(O)C(=O)OCc2c1cc1n(c2=O)Cc2c-1nc1cc(F)c(C)cc1c2CCCOCNC(=O)CN [Example B1.12, (S)-2-amino-N-((4-(4-ethyl-8-fluoro-4-hydroxy-9-methyl-3,14-dioxo-3,4,12,14-tetrahydro-1H-pyrano[3′,4′:6,7]indolizino[1,2-b]quinolin-11-yl)propoxy)methyl)acetamide] |  |  | EC50 (HT29 cells [2]): 85.9 nM |
| CC[C@@]1(O)C(=O)OCc2c1cc1n(c2=O)Cc2c-1nc1cc3c(cc1c2/C=C/CO)OCO3 [Example A1.13, (S,E)-14-(3-hydroxy-1-propylen-1-yl)-7-ethyl-7-hydroxy-10,13-dihydro-11H-[1,3]dioxolo[4,5-g]pyrano[3′,4′:6,7]indolizino[1,2-b]quinolin-8,11(7H)-dione] | 96.8 | 49.2 |  |
| CC[C@@]1(O)C(=O)OCc2c1cc1n(c2=O)Cc2c-1nc1cc(F)c(C)cc1c2/C=C/CO [Example A1.14, (S,E)-4-ethyl-8-fluoro-4-hydroxy-11-(3-hydroxy-1-propylen-1-yl)-9-methyl-1,12-dihydro-14H-pyrano[3′,4′:6,7]indolizino[1,2-b]quinolin--3,14(4H)-dione] | 156 | 123 |  |
| CC[C@@]1(O)C(=O)OCc2c1cc1n(c2=O)Cc2c-1nc1cc(F)c(C)cc1c2/C=C/COCNC(=O)CN [Example B1.17, (S,E)-2-amino-N-(((3-(4-ethyl-8-fluoro-4-hydroxy-9-methyl-3,14-oxo-3,4,12,14-tetrahydro-1H-pyrano[3′,4′:6,7]indolizino[1,2-b]quinolin-11-yl)allyl)oxy)methyl)acetamide] |  |  | EC50 (HT29 cells [2]): 205 nM |
| CC[C@@]1(O)C(=O)OCc2c1cc1n(c2=O)Cc2c-1nc1cc(F)c(C)cc1c2CCCN [Example A1.11, (S)-4-ethyl-8-fluoro-4-hydroxy-11-(3-aminopropyl)-9-methyl-1,12-dihydro-14H-pyrano[3′,4′:6,7]indolizino[1,2-b]quinolin-3,14(4H)-dione] | 284 | 203 |  |
| CC[C@@]1(O)C(=O)OCc2c1cc1n(c2=O)Cc2c-1nc1cc3c(cc1c2/C=C/CN)OCO3 [Example A1.12, (S,E)-14-(3-amino-1-propylen-1-yl)-7-ethyl-7-hydroxy-10,13-dihydro-11H-[1,3]dioxolo[4,5-g]pyrano[3′,4′:6,7]indolizino[1,2-b]quinolin-8,11(7H)-dione] | 212 | 167 |  |
| CC[C@@]1(O)C(=O)OCc2c1cc1n(c2=O)Cc2c-1nc1cc3c(cc1c2CCCOCNC(=O)CN)OCO3 [Example B1.14, (S)-2-amino-N-((3-(7-ethyl-7-hydroxy-8,11-dioxo-7,8,11,13-tetrahydro-10H-[1,3]dioxolo[4,5-g]pyrano[3′,4′:6,7]indolizino[1,2-b]quinolin-14-yl)propoxy)methyl)acetamide] |  |  | EC50 (A431): 68 nM; EC50 (A549): 252 nM; EC50 (HT29): 368 nM; EC50 (NCI-H358): 581 nM; EC50 (NUCG-4): 185 nM; EC50 (PC-9): 34.3 nM |
| CCCNCCc1c2c(nc3cc4c(cc13)OCO4)-c1cc3c(c(=O)n1C2)COC(=O)[C@]3(O)CC [Example A1.15a, (S)-7-ethyl-7-hydroxy-14-(2-(n-propylamino)ethyl)-10,13-dihydro-11H-[1,3]dioxolo[4,5-g]pyrano[3′,4′:6,7]indolizino[1,2-b]quinolin-8,11(7H)-dione] | 3.57 | 3.88 | EC50 (LS174T cells): 19.5 nM |
| CC[C@@]1(O)C(=O)OCc2c1cc1n(c2=O)Cc2c-1nc1cc3c(cc1c2CCNC(C)C)OCO3 [Example A1.8D, (S) 7-ethyl-7-hydroxy-14-(2-(isopropylamine)ethyl)-10,13-dihydro-11H-[1,3]dioxolo[4,5-g]pyrano[3′,4′:6,7]indolizino[1,2-b]quinolin-8,11(7H)-dione] |  | 7.92 |  |
| CC[C@@]1(O)C(=O)OCc2c1cc1n(c2=O)Cc2c-1nc1cc3c(cc1c2-c1ccc(NC(=O)CN)cc1)OCO3 [Example B1.9, (S)-2-amino-N-(4-(7-ethyl-7-hydroxy-8,11-dioxo-7,8,11,13-tetrahydro-10H-[1,3]dioxolo[4,5-g]pyrano[3′,4′:6,7]indolizino[1,2-b]quinolin-14-yl)phenyl)acetamide] |  |  | EC50 (HT29 cells [2]): 262 nM |
| CCCN(CCc1c2c(nc3cc4c(cc13)OCO4)-c1cc3c(c(=O)n1C2)COC(=O)[C@]3(O)CC)C(=O)CO [Example A1.15b, (S)—N-(2-(7-ethyl-7-hydroxy-8,11-dioxo-7,8,11,13-tetrahydro-10H-[1,3]dioxolo[4,5-g]pyrano[3′,4′:6,7]indolizino[1,2-b]quinolin-14-yl)ethyl)-2-hydroxy-N-n-propylacetamide] | 47.5 |  | EC50 (LS174T cells): 44.6 nM |
| CC[C@@]1(O)C(=O)OCc2c1cc1n(c2=O)Cc2c-1nc1cc3c(cc1c2CCN(C(=O)CO)C(C)C)OCO3 [Example A1.8, (S)—N-(2-(7-ethyl-7-hydroxy-8,11-dioxo-7,8,11,13-tetrahydro-10H-[1,3]dioxolo[4,5-g]pyrano[3′,4′:6,7]indolizino[1,2-b]quinolin-14-yl)ethyl)-2-hydroxy-N-isopropylacetamide] | 367 | 296 |  |
